Source: patent US20070243137A1, “Cell and sub-cell methods for imaging and therapy” (priority 2006, published 2007)
Several values for one entry are separate records, joined by “and”; a condition that tells them apart may be missing. Equal values may be shown once.

Tests used:
[1] = in vivo; cited from earlier work
[2] = MRI imaging (1.5 Tesla, T1) of rat bearing subcutaneous F98 glioma tumor after intravenous injection; assay type: in vivo
Method: A male rat bearing a subcutaneous F98 glioma tumor in its thigh was anesthetized and a catheter inserted into the femoral vein. The animal was then placed in a 1.5 Tesla clinical MRI scanner with a head coil around it. T1 images were acquired before injection. The sample in example 2 was used without further purification, and an amount was injected, corresponding to a dose of 0.1 mmol Gd/kg, which is the recommended dose/weight for gadodiamide use in vivo. Images were acquired using both T1 and T2 modes. […] For comparison, a rat bearing a similar tumor was injected with 0.1 mmol gadodiamide/kg. […] Many of the smaller vesicles filtered through the kidneys, since at 30 min post injection not only was contrast seen in the urine in the bladder (as also seen with the gadodiamide only preparation), but high contrast was seen on the surface of the urine in the bladder. This may be explained by the lower density of the lipid-containing vesicles, allowing them to float on the surface. […] It should be noted that whatever the fate of the contrast agent is, only an FDA approved standard amount was injected, and should not cause any toxic effects.

[3] = abdominal aorta, 10 min after injection
[4] = hepatic portal vein, 10 min after injection
[5] = inferior vena cava, 10 min after injection

## O=C([O-])CN(CCN(CC(=O)[O-])CC(=O)O)CCN(CC(=O)[O-])CC(=O)O.[Gd+3] [Gd-DTPA, gadolinium diethytriaminepentaacetic acid]
[1]
  blood half-life: ~20 min

## CNC(=O)CN(CCN(CCN(CC(=O)[O-])CC(=O)NC)CC(=O)[O-])CC(=O)[O-].[Gd+3] [gadodiamide, Gadolinium diethylenetriaminepentaacetic acid bismethyl-amide]
[2]; 0.1 mmol gadodiamide/kg, rat with similar tumor
  maximal tumor contrast relative to rat given vesicle-loaded gadodiamide: approximately one-half
[2]; F98 glioma tumor in thigh, 10 min after i.v. injection, 0.1 mmol Gd/kg
  After injection (HU), tumor: 828±82 HU and 828 HU
[2]; abdominal aorta, 10 min after i.v. injection, 0.1 mmol Gd/kg
  After injection (HU), Abdominal Aorta: 627±76 HU and 627 HU
[2]; [3]
  Contrast change (HU), Abdominal Aorta: 9 HU
  Percent change, Abdominal Aorta: 1%
[2]; heart, 10 min after i.v. injection, 0.1 mmol Gd/kg, T1
  After injection (HU), Heart: 540±137 HU and 540 HU
[2]; heart, 10 min after injection
  Contrast change (HU), Heart: 91 HU
  Percent change, Heart: 20%
[2]; hepatic portal vein, 10 min after i.v. injection, 0.1 mmol Gd/kg
  After injection (HU), hepatic portal vein: 774±47 HU and 774 HU
[2]; [4]
  Contrast change (HU), hepatic portal vein: 96 HU
  Percent change, hepatic portal vein: 14%
[2]; inferior vena cava, 10 min after i.v. injection, 0.1 mmol Gd/kg
  After injection (HU), Inferior vena cava: 770±49 HU and 770 HU
[2]; [5]
  Contrast change (HU), Inferior vena cava: 10 HU
  Percent change, Inferior vena cava: 1%
[2]; kidney, 10 min after i.v. injection, 0.1 mmol Gd/kg
  After injection (HU), Kidney: 1411±136 HU and 1411 HU
[2]; kidney, 10 min after injection
  Contrast change (HU), Kidney: 848 HU
  Percent change, Kidney: 151%
[2]; liver, 10 min after i.v. injection, 0.1 mmol Gd/kg
  After injection (HU), Liver: 831±27 HU and 804±58 HU and 831 HU
[2]; liver, 10 min after injection
  Contrast change (HU), Liver: 16 HU
  Percent change, Liver: 2%
[2]; minutes after injection up to 20 minutes or more, 0.1 mmol/kg
  vascular contrast in T1 mode: not significantly contrasted
[2]; tumor, 10 min after injection
  Contrast change (HU), tumor: 321 HU
  Percent change, tumor: 63%
[1]
  blood half-life: ~20 min
